Each structure is given as a SMILES string.

Results on 2 compounds are retold here after patent US7445892B2, “Method of testing anticancer agent-sensitivity of tumor cells” (Eisai Co., Ltd., priority 2000, dated 2008).

The test system of this experiment is HCT116-C9. Put plainly: Gene expression analysis using DNA microarray (GeneChip Hu6800). Type of experiment: cell-based, human. Conditions: HCT116-C9, 8 μM, 12 hours, compared with cells without drug; change of 1.8 times or more counted. The procedure:
All cells were cultured in RPMI-1640 medium supplemented with 10% of fetal bovine serum, 100 units/ml of penicillin and 100 μg/ml of streptomycin at 37° C. under 5% CO2.
E7070, or ER-35748 or ER-68487 represented by the structural formula shown below was added to the media of an E7070-susceptible strain HCT116-C9 and an E7070-resistant strain HCT116-C9-C1 at a concentration of 8 μM and the cells were cultured. Then, cells were recovered after 0, 3, 6 and 12 hours. Further, the cells were also cultured for 12 hours without adding the drug and recovered.
Total RNA was extracted from these cells and subjected to the subsequent analyses. The RNA extracted from the cells cultured for 12 hours with the drug and the RNA from extracted the cells cultured for 12 hours without the drug were used for the gene expression analysis using a DNA microarray described in Example 2. HCT116-C9 was a substrain isolated from HCT116 derived from human colon cancer (American Type Culture Collection, Manassas, Va., U.S.A.), and HCT116-C9-C1 was an E7070-resistant substrain obtained by culturing this HCT116-C9 in the presence of E7070 with gradually increasing the E7070 concentration.
Total RNA was extracted from the recovered cells by using TRIZOL Reagent (Life Technologies Oriental) according to the attached operation manual.
Each RNA obtained in Example 1 was dissolved in 100 μl of sterilized water treated with diethyl pyrocarbonate (DEPC) and further purified by using RNeasy Column (QIAGEN), and double-stranded cDNA was synthesized by using SuperScript Choice System (Life Technologies Oriental) and a T7-d(T)24 primer.
First, to 10 μg of RNA, 5 μM T7-d(T)24 primer, 1×First strand buffer, 10 mM DTT, 500 μM dNTP mix and 20 units/μl of SuperScript II Reverse Transcriptase were added and the mixture was allowed to react at 42° C. for 1 hour to synthesize single-stranded DNA. Subsequently, to the DNA, 1×Second strand buffer, 200 μM dNTP mix, 67 U/ml of DNA ligase, 270 U/ml of DNA polymerase I and 13 U/ml of RNase H were added and the mixture was allowed to react at 16° C. for 2 hours to synthesize double-stranded cDNA. Further, to the cDNA, 67 U/ml of T4 DNA polymerase I was added and the mixture was allowed to react at 16° C. for 5 minutes and then 10 μl of 0.5 M EDTA was added to terminate the reaction.
The obtained cDNA was purified with phenol/chloroform, and a labeling reaction with biotinylated UTP and CTP was carried out by using RNA Transcript Labeling Kit (Enzo Diagnostics) according to the attached operation manual. The reaction product was purified with Rneasy Column and heated in 200 mM Tris/acetate buffer (pH 8.1), 150 mM magnesium acetate, 50 mM potassium acetate at 94° C. for 35 minutes to obtain fragment cRNA.
The fragmented cRNA was hybridized with GeneChip Hu6800 (Affymetrix) in 100 mM MES, 1 M sodium salt, 20 mM EDTA and 0.01% Tween 20 at 45° C. for 16 hours. After the hybridization, the GeneChip was washed and stained according to the protocol EukGE-WS2 attached to Affymetrix Fluidics Station. For the staining, streptavidin-phycoerythrin and biotinylated goat anti-streptavidin antibody were used. The stained GeneChip was scanned by using HP Argon Ion Laser Confocal Scanner (Hewlett Packard) to measure its fluorescence intensity. The fluorescence was measured at 570 nm by using an excitation light at 488 nm.
The quantitative data analyses were all conducted by using GeneChip Software (Affymetrix). To quantify RNA, an average of “differences [(Perfect match hybridization signal)−(Mismatch signal)]” was obtained for each probe family.
E7070, or ER-35748 or ER-68487 was added to a medium for HCT116-C9 at a concentration of 8 μM and culture was performed. The results of analysis of RNA extracted from the cells at 12 hours by using GeneChip were compared with the results of RNA analysis for HCT116-C9 cells obtained in the same manner except for not adding the drug. […]

Take `N#Cc1ccc(S(=O)(=O)Nc2cccc3c(Cl)c[nH]c23)cc1` [ER-35748]: the “expression levels of the genes listed in Table 1” value is given as “increased” and the “expression levels of the genes listed in Table 2” value is recorded as “decreased”.
For `N#Cc1ccc(S(=O)(=O)Nc2cccc3c(C#N)c[nH]c23)cc1` [ER-68487], in that order: “increased” and “decreased”.
